Results on four compounds are retold here after US6599715B1, “Real time viability detection of bacterial spores” (priority 1999, dated 2003).

Molecules are shown by their SMILES.

In this test the test system is Bacillus globigii spores. It is filed as cell-based. The following applies: relative germination; phase change monitored at 450 nm over 10 minutes; 3.6×10^8 spores per ml in 20 mM potassium phosphate buffer (pH 7.4). On the procedure: Bacillus cultures were grown at 30° C. with moderate aeration for 7 days. Spores were harvested by centrifugation at 10,900×g for 30 minutes at 4° C. and resuspended in 200 milliliters (ml) of sterile distilled water and washed 7 to 10 times, heated to 65° C. for 15 minutes to kill any vegetative cells, and stored at 4° C. Spore populations were determined from the average of 3 serial dilution plates.
B. globigii spores (500 microliters (μl)) were diluted to a concentration of 3.6×10^8 spores per ml in 20 millimolar (mM) potassium phosphate buffer (pH 7.4), and mixed with 500 μl of a 0.12 M solution of one or more of L-alanine, L-asparagine and D-glucose, together with DPA and other chemicals to test the effectiveness of various combinations as germinating agents. The phase change of the spores in the germinants was monitored at 450 nm over a period of 10 minutes.
Regarding `O=C(O)c1cccc(C(=O)O)n1` [20 mM DPA, pyridine-2,6-dicarboxylic acid], the Percent germination turned out to be 7.3%.

For `O=C[C@H](O)[C@@H](O)[C@H](O)[C@H](O)CO` [20 mM D-glucose, D-glucose], the Percent germination was found to be 7.0%.

On to `C[C@H](N)C(=O)O` [20 mM L-alanine, L-alanine], for which the Percent germination came to 50.1%.

`NC(=O)C[C@H](N)C(=O)O` [20 mM L-asparagine, L-asparagine]: the Percent germination amounted to 5.2%.
